What was measured:
[1] = tested on: TNFα release from mononuclear cells; experiment: Test 4: cytokine release from LPS-stimulated mononuclear cells, TNFα; type: cell-based; conditions: Homo sapiens, read-out: Test 4 residual activity (TNFα release), percent of control
Procedure: Test 4. Stimulation of the cytokine release
Isolation of mononuclear cells from human blood
10 ml of human blood, stabilized with 1 ml of 3.8% sodium citrate solution, were diluted with 10 ml of PM16 (Serva, Heidelberg) and underlaid with 15 ml of Lymphoprep (Dr. Molter GmbH, Heidelberg). The samples were centrifuged, at room temperature for 40 minutes, at 400×g (1600 rpm, Minifuge 2, Heraeus, Osterode). The mononuclear cells are visible as a white ring at the Lymphoprep/plasma interface. This ring was carefully removed with a syringe, diluted with an equal volume of PM16, and centrifuged for 10 minutes at 400×g. The sediment was washed with approximately 10 ml of RPMI1640 (+300 mg/l L-glutamine, Gibco, Eggenstein) (Wallis, 1986). After the cells had been resuspended in approximately 1 ml of RPMI1640 (+300 mg/l L-glutamine+25 mM HEPES+100 μg/ml streptomycin+100 μg/ml penicillin), the cell density was determined using a Coulter Counter JT (Coulter Diagnostics) and adjusted to 5*10^6 /ml. Typically, the cells are composed of 90% lymphocytes and 10% monocytes.
230 μl of mononuclear cells were incubated, at 37° C.; 5% CO2 for 20-22 hours (5 hours in the case of IL-6), with 10 μl of test substance (10 μM in DMSO/water, 1/10) and 10 μl of lipopolysaccharide (LPS; 500 μg dissolved in 1 ml of DMSO and diluted 1/10 with water prior to beginning the test; from Salmonella abortus equi, Sigma, Deisenhofen). The samples were cooled down to 0° C. in an ice bath and centrifuged in a Sigma centrifuge (2 minutes; 2000 rpm). Aliquots of the supernatant are measured with an ELISA (Biermann, Bad Nauheim). The abbreviation IL stands for interleukin and TNF for tumor necrosis factor alpha.
(§1) The values in the table show the concentration of the test substance which was employed in μM and, besides this, the residual activity measured in percent based on the control, which was set to be 100%. The interleukin is additionally indicated in test 4.

[2] = tested on: cyclooxygenase-dependent thrombocyte aggregation; experiment: Test 5: Cyclooxygenase-dependent thrombocyte aggregation; type: cell-based, human; conditions: Homo sapiens, arachidonic acid as inducer, read-out: Test 5 residual activity (cyclooxygenase-dependent thrombocyte aggregation), percent of control
In short: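 Citrated human platelet-rich plasma was preincubated 10 min at 37 °C with test substance diluted 1:30 in 50 mM Tris-HCl pH 8.0, 90 mM NaCl. Aggregation was triggered with arachidonic acid (5 mg/ml, 20 μl) under 800 rpm stirring in an aggregometer. Values are tested concentration (μM) and residual activity as % of control.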

[3] = tested on: polymorphonuclear leucocytes (PMNL); experiment: Test 2: Release of oxygen radicals from human PMNL; type: cell-based; conditions: read-out: Test 2 residual activity (release of oxygen radicals), percent of control
Procedure: Isolation of polymorphonuclear leucocytes (PMNL) from human peripheral blood for carrying out tests 1 and 2 10 ml of human blood were diluted with 10 ml of HBSS (Serva) and underlaid with 15 ml of Lymphoprep (Dr. Molter GmbH, Heidelberg). The sample was then centrifuged for 25 minutes at 400×g (1600 revolutions per minute, Minifuge 2, Heraeus, Osterode). […] A white ring, composed of mononuclear cells, is located between these two phases. The lowermost phase is composed of erythrocytes which are covered with a white layer of PMNL. The uppermost phase, and also the Lymphoprep and the white ring, were carefully removed using a syringe. The remaining sediment was carefully resuspended in 15 ml of 3% dextran in PM16 (mw: 485,000, Sigma, Deisenhofen). The suspension was then left to stand at room temperature for one hour. During this time, the erythrocytes sedimented while the PMNL remained in the supernatant. The supernatant was removed, diluted with an approximately equal volume of PM16, and centrifuged for 15 minutes at 400×g. Should the PMNL sediment be heavily contaminated with erythrocytes, it is necessary to carry out a hypotonic lysis. To do this, the sediment was resuspended in 750 μl of water. After exactly 15 seconds, the suspension was diluted with approximately 7 ml of PM16 and centrifuged for 10 minutes at 400×g. If necessary, this lysis was repeated once more. Otherwise, the PMNL sediment was resuspended in a suitable medium.
The PMNL were resuspended (5·10^6 cells/ml) in Dulbecco's PBS, supplemented with 7.5 mM glucose. Care must be taken to ensure that the PMNL are free of erythrocytes. 100 μl of PMNL, 700 μl of PBS+glucose and 100 μl of cytochrome C (9.38 mg/ml of PBS+glucose) were mixed in a semi-microcuvette. 100 μl of PMNL, 500 μl of PBS+glucose, 100 μl of cytochalasin B ([…]), 100 μl of TNF (0.05 ng) and 100 μl of cytochrome C (9.38 mg/ml of PBS+glucose) were mixed for the fMLP-induced release of oxygen. Measurements were made in a double-beam photometer meter (Perkin-Elmer 552 S) at a wavelength of 550 nm. The measurement range is 0-1 extinction units. The cuvettes were temperature-equilibrated to 37° C. The reference cuvette additionally contained 10 μl of SOD (6 mg of SOD/ml of PBS+glucose). Following a preincubation of 5 minutes, the reaction is started with 100 μl of inducer. The reaction is started with 1·10^-7 mol of fMLP.
as §1

[4] = tested on: tumor cell line 20-10-5S (hybridoma cell line); experiment: Test 8: Inhibition of tumor cell proliferation; type: cell-based; conditions: 48 h + 16 h tritiated thymidine incorporation; 20-10-5S cells

Row | SMILES | IC50 [4] | activity at 10 µM [1] | activity at 100 µM [2] | activity at 10 µM ([3]; 10 μM) | activity at 25 µM ([3]; 25 μM) | activity at 10 µM ([2]; 10 μM) | activity at 5 µM [3] | activity at 50 µM [3]
1 | CC(C)(C)c1cc(C2=NOC(c3ccccn3)C2)cc(C(C)(C)C)c1O (stereo not shown) [Example 9] | – | 63% | 92% | – | – | – | – | –
2 | CC(O)c1cc(-c2cc(C(C)(C)C)c(O)c(C(C)(C)C)c2)no1 (stereo not shown) [Example 28] | < 5 µM | – | – | 60% | 8% | 93% | – | –
3 | CC(C)(C)c1cc(C2CC(CCC(=O)O)=NO2)cc(C(C)(C)C)c1O (stereo not shown) [Example 63, 5-(4-Hydroxy-3,5-di-tert-butylphenyl)-2-isoxazolin-3-ylpropionic acid] | – | – | – | – | – | – | – | 79%

The next lines start with results.

Row | IC50 [4] | SMILES | activity at 10 µM [1] | activity at 100 µM [2] | activity at 10 µM ([3]; 10 μM) | activity at 25 µM ([3]; 25 μM) | activity at 10 µM ([2]; 10 μM) | activity at 5 µM [3] | activity at 50 µM [3]
4 | < 5 µM | CCOC(=O)CNC(=O)OCCCc1cc(-c2cc(C(C)(C)C)c(O)c(C(C)(C)C)c2)no1 [Example 41, N-(3-(4-Hydroxy-3,5-di-tert-butylphenyl)isoxazol-5-ylpropoxycarbonyl)glycine ethyl ester] | 89% | 95% | – | – | – | 75% | 36%
5 | 5 to 10 µM | CC(C)(C)c1cc(-c2cc(CNS(=O)(=O)C(F)(F)F)on2)cc(C(C)(C)C)c1O [Example 49, N-(3-(4-Hydroxy-3,5-di-tert-butylphenyl)isoxazol-5-ylmethyl)trifluoromethanesulfonamide] | 91% | – | – | – | – | 80% | 12%

From patent publication US5814627A, “3, 5-disubstituted and 3, 4, 5-trisubstituted 2-isoxazolines and isoxazoles, process for their preparation and their use as pharmaceuticals” (Hoechst Aktienegesellschaft, priority 1994, dated 1998)
